Measured values published in patent publication US20020161528A1, “Tool for lipophilicity determination in drug discovery basic and neutral compounds” (Pfizer Inc., priority 2001, published 2002).
Where a name gives a salt, the structure may show the parent alone. Read-outs that look alike come from different tables or passages of the source.

Assays:
[1] = for log k′w / ElogDoct: pH 7.4
[2] = physchem; conditions: pH 7.4
[3] = pH 7.4, cited from earlier work
[4] = Table 1, capacity factor extrapolated to 0% methanol, average of three to five determinations
[5] = Table 1, average of literature references only
[6] = Table 1, from log k′w by Equation 1

| SMILES | log k′w [1, 4] | chromatographic logD [2] | logDoct [3, 5] | other results |
| --- | --- | --- | --- | --- |
| Cc1nc2n(c(=O)c1CCN1CCC(c3noc4cc(F)ccc34)CC1)CCCC2 [Risperidone] | 1.23 | 1.59 |  | Res (logDoct − ElogDoct) ([1]; Table 1): 0.45 |
| COC(=O)[C@H]1[C@@H](OC(=O)c2ccccc2)C[C@@H]2CC[C@H]1N2C [Cocaine] |  | 0.48 | 1.05 | Res (logDoct − ElogDoct) ([1]; Table 1): 0.57 |
| CCN(CC)CC(=O)Nc1c(C)cccc1C [Lidocaine] | 0.96 |  |  |  |
| CN1CCN(C2=Nc3cc(Cl)ccc3Nc3ccccc32)CC1 [Clozapine] |  | 3.38 |  |  |
| CS(=O)(=O)c1ccc([C@@H](O)[C@@H](CO)NC(=O)C(Cl)Cl)cc1 [Thiamphenicol] | −0.05 | 0.15 | −0.27 |  |
| CSc1ncnc2c1ncn2[C@@H]1O[C@H](CO)[C@@H](O)[C@H]1O [Methylthioinosine] | 0.25 |  |  | logDoct [3]: 0.09; Res (logDoct − ElogDoct) ([1]; Table 1): −0.40; ElogDoct [1, 6]: 0.49 |
| COc1ccc2c3c1O[C@H]1[C@@H](O)C=C[C@H]4[C@@H](C2)N(C)CC[C@@]341 [Codeine] | 0.16 | 0.39 | 0.23 | Res (logDoct − ElogDoct) ([1]; Table 1): −0.16 |
| Oc1cccc(Cl)c1 [3-Chlorophenol] | 2.58 | 3.11 |  | Res (logDoct − ElogDoct) ([1]; Table 1): −0.61 |
| CC(C)NCC(O)c1ccc(NS(C)(=O)=O)cc1 (stereo not shown) [Sotalol] | −1.47 | -1.45 |  |  |
| NC(=O)N1c2ccccc2C=Cc2ccccc21 [Carbamazepine] | 1.40 |  | 2.19 |  |
| O=C1CN=C(c2ccccn2)c2cc(Br)ccc2N1 [Bromazepam] | 1.04 | 1.38 | 1.65 | Res (logDoct − ElogDoct) ([1]; Table 1): 0.27 |
| O=C(NCC1CCCCN1)c1cc(OCC(F)(F)F)ccc1OCC(F)(F)F (stereo not shown) [Flecainide] | 0.25 | 0.49 |  |  |
| Cc1ncc([N+](=O)[O-])n1CCO [Metronidazole] | −0.08 | 0.12 | −0.02 |  |
| C[C@]12C=CC(=O)C=C1CC[C@@H]1[C@@H]2C(=O)C[C@@]2(C)[C@H]1CC[C@]2(O)C(=O)CO [Prednisone] | 0.90 | 1.22 |  |  |
| c1ccc2ncccc2c1 [Quinoline] | 1.52 | 1.92 |  | logDoct [3]: 2.03 |
| C[C@]12C=CC(=O)C=C1CC[C@@H]1[C@@H]2[C@@H](O)C[C@@]2(C)[C@H]1CC[C@]2(O)C(=O)CO [Prednisolone] | 1.24 | 1.6 |  |  |
| C[C@]12CC[C@H]3[C@@H](CCC4=CC(=O)CC[C@@]43C)[C@@H]1CC[C@@H]2O [Testosterone] | 2.63 |  | 3.29 | Res (logDoct − ElogDoct) ([1]; Table 1): 0.12; ElogDoct [1]: 3.17 |
| CN(C)CCCN1c2ccccc2CCc2ccccc21 [Imipramine] | 1.56 |  |  |  |
| Clc1ccccc1C(c1ccccc1)(c1ccccc1)n1ccnc1 [Clotrimazole] | 4.03 | 4.75 |  |  |
| CSc1ccc2c(c1)N(CCC1CCCCN1C)c1ccccc1S2 (stereo not shown) [Thioridazine] | 2.88 | 3.45 |  |  |
| CN1C(=O)C(O)N=C(c2ccccc2Cl)c2cc(Cl)ccc21 (stereo not shown) [Lormetazepam] | 2.27 | 2.77 | 2.72 | Res (logDoct − ElogDoct) ([1]; Table 1): −0.05 |
| CNC(=C[N+](=O)[O-])NCCSCc1csc(CN(C)C)n1 [Nizatidine] | −0.13 | 0.06 | −0.52 |  |
| c1ccc(-c2ccc(C(c3ccccc3)n3ccnc3)cc2)cc1 (stereo not shown) [Bifonazole] | 4.33 | 5.09 | 4.77 |  |
| C[C@]12CCC(=O)C=C1CC[C@@H]1[C@@H]2[C@@H](O)C[C@@]2(C)[C@H]1CC[C@]2(O)C(=O)CO [Hydrocortisone] |  | 1.49 |  |  |
| NC(=O)N/N=C/c1ccc([N+](=O)[O-])o1 [Nitrofurazone] | 0.29 | 0.53 | 0.23 |  |
| CN1[C@@H]2CC[C@H]1C[C@@H](OC(=O)C(CO)c1ccccc1)C2 (stereo partly shown) [Atropine] |  |  |  | log k′w [1]: −0.33 |
| CCN(CC)CCNC(=O)c1ccc(N)cc1 [Procainamide] | −0.69 | -0.57 |  |  |
| COC1=CC(=O)C[C@@H](C)[C@]12Oc1c(Cl)c(OC)cc(OC)c1C2=O [Griseofulvin] | 1.73 | 2.16 | 2.18 |  |

| SMILES | log k′w [1, 4] | chromatographic logD [2] | logDoct [3, 5] | other results |
| --- | --- | --- | --- | --- |
| CC(=O)c1ccccc1 [Acetophenone] | 1.21 | 1.57 |  |  |
| Cc1cccc(N(C)C(=S)Oc2ccc3ccccc3c2)c1 [Tolnaftate] | 4.53 |  |  |  |
| Oc1cc(Cl)cc(Cl)c1 [3,5-Dichiorophenol] | 3.44 |  |  | logDoct [3]: 3.68; Res (logDoct − ElogDoct) ([1]; Table 1): −0.40; ElogDoct [1]: 4.08 |
| COc1ccc2[nH]c([S+]([O-])Cc3ncc(C)c(OC)c3C)nc2c1 (stereo not shown) [Omeprazole] |  | 2 |  |  |
| CN(C)CCOC(c1ccccc1)c1ccccc1 [Diphenhydramine] | 1.04 |  |  |  |
| CC(C)(C)NCC(O)c1cc(O)cc(O)c1 (stereo not shown) [Terbutaline sulfate] | −1.51 | -1.49 | −1.35 |  |
| CN(C)CCCN1c2ccccc2Sc2ccc(Cl)cc21 [Chlorpromazine] | 2.66 | 3.2 |  |  |
| C[C@@H]1C[C@H]2[C@@H]3CCC4=CC(=O)C=C[C@]4(C)[C@@]3(F)[C@@H](O)C[C@]2(C)[C@@]1(O)C(=O)CO [Dexamethasone] |  | 2.03 | 1.83 |  |
| C[C@]12CC[C@@H]3c4ccc(O)cc4CC[C@H]3[C@@H]1CC[C@@H]2O [Estradiol] |  | 3.9 |  |  |
| CCOC(=O)C1=C(COCCN)NC(C)=C(C(=O)OC)C1c1ccccc1Cl (stereo not shown) [Amlodipine] |  | 2.15 |  |  |
| CC/C(=C(/CC)c1ccc(O)cc1)c1ccc(O)cc1 [Diethylstilbestrol] | 4.12 | 4.85 | 5.07 |  |
| c1ccc2ccccc2c1 [Naphthalene] | 3.03 | 3.62 |  |  |
| Brc1cnc2ccccc2c1 [3-Bromoquinoline] | 2.53 |  | 3.03 |  |
| CC(=O)CCCCn1c(=O)c2c(ncn2C)n(C)c1=O [Pentoxifylline] | 0.03 | 0.24 | 0.29 |  |
| CCCCc1oc2ccccc2c1C(=O)c1cc(I)c(OCCN(CC)CC)c(I)c1 [Amiodarone] | 5.10 |  |  |  |
| O=C1Nc2ccc(Cl)cc2C(c2ccccc2Cl)=NC1O (stereo not shown) [Lorazepam] | 2.30 | 2.8 |  | Res (logDoct − ElogDoct) ([1]; Table 1): −0.29 |
| CCOC(=O)N1CCC(=C2c3ccc(Cl)cc3CCc3cccnc32)CC1 [Loratadine] | 4.02 |  |  |  |
| CN1CC[C@]23c4c5ccc(O)c4O[C@H]2[C@@H](O)C=C[C@H]3[C@H]1C5.O=S(=O)(O)O [Morphine sulfate] |  |  |  | log k′w [1]: 0.10 |
| CN(C)CCC(c1ccc(Cl)cc1)c1ccccn1 (stereo not shown) [Chlorpheniramine] | 1.20 |  |  |  |
| NS(=O)(=O)c1cc(C2(O)NC(=O)c3ccccc32)ccc1Cl (stereo not shown) [Chlorthalidone] | 0.76 | 1.06 |  |  |
| O=C(CCCN1CCC(O)(c2ccc(Cl)cc2)CC1)c1ccc(F)cc1 [Haloperidol] | 2.00 | 2.46 |  |  |
| Nc1nc(N)c2nc(-c3ccccc3)c(N)nc2n1 [Triamterene] | 0.71 | 1.01 |  |  |
| CC(=O)OCC(=O)[C@@]1(O)CC[C@H]2[C@@H]3CCC4=CC(=O)CC[C@]4(C)[C@H]3[C@@H](O)C[C@@]21C [Hydrocortisone-21 acetate] | 1.64 |  |  | logDoct [3]: 2.19; Res (logDoct − ElogDoct) ([1]; Table 1): 0.13; ElogDoct [1, 6]: 2.06 |
| COCCc1ccc(OCC(O)CNC(C)C)cc1 (stereo not shown) [Metoprolol] | −0.73 | -0.62 |  |  |
| CC(=O)Nc1ccc(O)cc1 [Acetominophen] | 0.15 |  |  | Res (logDoct − ElogDoct) ([1]; Table 1): 0.13; ElogDoct [1, 6]: 0.38 |
| C=CCc1ccccc1OCC(O)CNC(C)C (stereo not shown) [Alprenolol] | 0.37 | 0.62 |  |  |
| CN1C(=O)CN=C(c2ccccc2)c2cc(Cl)ccc21 [Diazepam] |  |  |  | log k′w [1]: 2.46 |
